Measurements: PubChem BioAssay (NCI)
Values joined by “and” are separate entries in the source; they are usually repeats but may differ in a detail not shown here. Equal entries are not always repeated.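 Method: 48-hour compound exposure of cells in 96-well plates, five concentrations, linear interpolation of endpoints. GI50 is the concentration that inhibits growth by half. Definition used: TGI = concentration required for complete inhibition of growth.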

What was measured:
Test in all cases: NCI tumour cell line growth inhibition, 48 h
[1] = system: BT-549 breast
[2] = system: CCRF-CEM leukemia
[3] = system: DU-145 prostate
[4] = system: EKVX NSCLC
[5] = system: IGROV1 ovarian
[6] = system: MDA-MB-231 breast
[7] = system: NCI/ADR-RES ovarian
[8] = system: OVCAR-5 ovarian
[9] = system: RPMI-8226 leukemia
[10] = system: U251 CNS
[11] = system: UACC-257 melanoma

Compound | TGI [1] | TGI [2] | TGI [3] | TGI [4] | TGI [5] | TGI [6] | TGI [7] | TGI [8] | TGI [9] | TGI [10] | TGI [11] | GI50 [2] | GI50 [4] | GI50 [5] | GI50 [8] | GI50 [10] | GI50 [11]
CNC(=O)OCC1=C(COC(=O)NC)C(C)N(c2ccc(OC)cc2)C1 (stereo not given) | > 100 µM | > 100 µM | > 100 µM | > 100 µM | > 100 µM | > 100 µM | > 100 µM | > 100 µM | > 100 µM | > 100 µM | > 100 µM |  |  |  |  |  | 
O=C1CCC(=O)N1n1c(Cc2ccccc2)n[nH]c1=O | > 100 µM | > 100 µM | > 100 µM | > 100 µM | > 100 µM | > 100 µM | > 100 µM | > 100 µM | > 100 µM | > 100 µM | > 100 µM |  |  |  |  |  | 
Cc1cc(O)c2c(=O)c3ccccc3[nH]c2c1 | 85.3 µM | > 100 µM | > 100 µM | > 100 µM | 94.2 µM | > 100 µM | > 100 µM | > 100 µM | 41 µM | > 100 µM | 54.2 µM |  |  |  |  |  | 
FC(F)(F)c1cc(Cl)cnc1N/N=C(/c1ccccc1)c1ccccn1 | 36.4 µM | 4.85 µM | > 100 µM | 4.97 µM | 5.59 µM | 40.2 µM | 6.76 µM | 33.4 µM | > 100 µM | 41.3 µM | 16.5 µM |  |  |  |  |  | 
O=C(O)CN(CC(=O)O)C1CCCCC1N(CC(=O)O)CC(=O)NCCN=C=S (stereo not given) | > 100 µM | > 100 µM | > 100 µM | > 100 µM | > 100 µM | > 100 µM | > 100 µM | > 100 µM | > 100 µM | > 100 µM | > 100 µM |  |  |  |  |  | 
Cc1cc(N(CCC#N)CCC#N)ccc1/C(N=Nc1ccc(Cl)cc1)=N\NC(=O)c1ccccc1 | > 100 µM | > 100 µM | > 100 µM | > 100 µM | > 100 µM | > 100 µM | > 100 µM | > 100 µM | > 100 µM | > 100 µM | > 100 µM |  |  |  |  |  | 
CC(C)/C(Cl)=N\OC(=O)Nc1ccc(S(N)(=O)=O)cc1 | 21.3 µM | 6.49 µM | 31.8 µM | 32.6 µM | 33.9 µM | 25.9 µM | 40.5 µM | 33.8 µM | 4.97 µM | 35.7 µM | 32.4 µM |  |  |  |  |  | 
COc1cc(/C=C/C(=N\NS(=O)(=O)c2ccc(C)cc2)c2sc(NNC(C)=O)nc2C)ccc1O | > 100 µM | > 100 µM | > 100 µM | > 100 µM | > 100 µM | > 100 µM | > 100 µM | > 100 µM | > 100 µM | > 100 µM | > 100 µM |  |  |  |  |  | 
Cc1cccc(/C=N/NC(=S)Nc2ccccc2)n1 | 75 µM | > 23.3 µM | > 67.7 µM | > 49.3 µM | > 25 µM | > 26.1 µM | 10.8 µM | > 100 µM | 75.6 µM | > 54.9 µM | 8.1 µM |  |  |  |  |  | 
COc1c(C)c(C/C=C(\C)CCCCO[Si](c2ccccc2)(c2ccccc2)C(C)(C)C)c(OC)c(OC)c1OC | > 46.4 µM | > 46.4 µM | 37.6 µM | > 31.6 µM | 42.2 µM | > 100 µM | 35.1 µM | > 46.4 µM | > 46.4 µM | > 46.4 µM | > 46.4 µM |  |  |  |  |  | 
CCC[C@@H](O)C[C@@H]1CCC[C@H](C[C@@H](O)CC)N1C | > 100 µM | > 100 µM | > 100 µM | > 100 µM | > 100 µM | > 100 µM | > 100 µM | > 100 µM | > 100 µM | > 100 µM | > 100 µM |  |  |  |  |  | 
CC(C)CC(=O)OC[n+]1ccc(-c2c(COC(=O)NC(C)C)c(COC(=O)NC(C)C)c3n2CCC3)cc1 | > 100 µM | > 100 µM | > 100 µM | > 100 µM | > 100 µM | > 100 µM | > 100 µM | > 100 µM | > 100 µM | > 100 µM | > 100 µM |  |  |  |  |  | 
O=C1/C(=C/c2ccc(O)cc2)CC/C1=C\c1ccc(O)cc1 | > 100 µM | 6.74 µM | > 100 µM | > 100 µM | > 100 µM | > 100 µM | > 100 µM | > 100 µM | > 100 µM | > 100 µM | > 100 µM |  |  |  |  |  | 
C(/c1ccco1)=c1/nc(-c2ccccc2)n2c1nc1ccccc12 | 94.4 µM | 46.8 µM | > 100 µM | 6.07 µM | > 100 µM | > 100 µM | > 100 µM | > 100 µM | 44.4 µM | > 100 µM | > 100 µM |  |  |  |  |  | 
CCOC(=O)Nn1c(C)nnc1-c1ccccc1 | > 100 µM | > 100 µM | > 100 µM | > 100 µM | > 100 µM | > 100 µM | > 100 µM | > 100 µM | > 100 µM | > 100 µM | > 100 µM |  |  |  |  |  | 
CCCN=C1CCN(Cc2ccccc2)c2ccccc2N1 | 34.3 µM | > 100 µM | > 100 µM | > 100 µM | 19.5 µM | 59.9 µM | 34.4 µM | > 100 µM | 28.9 µM | 43.6 µM | 29.2 µM |  |  |  |  |  | 
N=c1n(C(=O)N2CCCC2)c2cc(Cl)ccc2n1C1=NCCN1 | > 100 µM | > 100 µM | > 100 µM | > 100 µM | > 100 µM | > 100 µM | > 100 µM | > 100 µM | > 100 µM | > 100 µM | > 100 µM |  |  |  |  |  | 
O=c1[nH][nH]c(=O)n1Cc1ccccc1Cn1c(=O)[nH][nH]c1=O | > 100 µM | > 100 µM | > 100 µM | > 100 µM | > 100 µM | > 100 µM | > 100 µM | > 100 µM | > 100 µM | > 100 µM | > 100 µM |  |  |  |  |  | 
Oc1ccc(-c2nc(-c3cccnc3)c(-c3ccc(F)cc3)[nH]2)cc1 | 32.6 µM | 42.1 µM | 63.1 µM | 41.7 µM | 33.8 µM | 41.7 µM | 42.6 µM | 68 µM | 39.8 µM | 32.9 µM | 31.5 µM |  |  |  |  |  | 
CC1=CC2C(O1)C1C(=O)C=CC(=O)C1=CC2[N+](=O)[O-] (stereo not given) | 29.6 µM | > 23.7 µM | > 55.9 µM | 33.8 µM | 44.7 µM | 38.9 µM | > 77.9 µM | 63.3 µM | > 100 µM | 36.3 µM | 33.7 µM |  |  |  |  |  | 
Cc1c2cnccc2c(C)c2c1c1ccccc1n2CCCN | 2.85 µM | 0.75 µM and 0.215 µM | 0.798 µM | 1.37 µM and 0.506 µM | 1.74 µM and 0.973 µM | 0.439 µM | 1.04 µM and 1.16 µM | 1.71 µM and 0.874 µM | 0.671 µM | 0.911 µM and 0.523 µM | 2.32 µM and 1.92 µM | 0.0966 µM and 0.0188 µM | 0.153 µM | 0.198 µM | 0.196 µM | 0.0696 µM | 0.633 µM
O=C(NNC(=O)c1ccccc1SSc1ccccc1C(=O)NNC(=O)c1ccccc1S)c1ccccc1S | 74.8 µM | 24.4 µM | > 54.7 µM | > 71.5 µM | > 100 µM | > 74.6 µM | > 73.6 µM | > 100 µM | > 100 µM | > 71.9 µM | > 95.4 µM |  |  |  |  |  | 
O=c1[nH]cc(N=Cc2cc(Cl)cc(Cl)c2O)c(=O)[nH]1 | 94.9 µM | 99 µM | 60.4 µM | > 100 µM | 50.1 µM | > 100 µM | 47.8 µM | > 100 µM | 70.6 µM | > 100 µM | 83.8 µM |  |  |  |  |  | 
COc1ccc(C(OCC2OC(n3cc(C)c(=O)[nH]c3=O)CC2n2cc(Cn3cc(I)c(=O)[nH]c3=O)nn2)(c2ccccc2)c2ccccc2)cc1 (stereo not given) | > 100 µM | > 100 µM | > 100 µM | > 100 µM | > 100 µM | > 100 µM | > 100 µM | > 100 µM | > 100 µM | > 100 µM | > 100 µM |  |  |  |  |  | 
COc1cc2c(cc1OC)C(c1ccccc1CCCCl)=NCC2 | > 100 µM | > 100 µM | > 100 µM | > 100 µM | > 100 µM | > 100 µM | > 100 µM | > 100 µM | 42 µM | > 100 µM | > 100 µM |  |  |  |  |  | 
C[C@@]12C[C@@H](c3ccccc3O1)N1CCCCSC1=N2 | > 100 µM | > 100 µM | > 100 µM | > 100 µM | > 100 µM | > 100 µM | > 100 µM | > 100 µM | > 100 µM | > 100 µM | > 100 µM |  |  |  |  |  | 
O=C(CCC(=O)c1ccc(Cl)cc1)NO | > 100 µM | > 100 µM | > 100 µM | > 100 µM | > 100 µM | > 100 µM | > 100 µM | > 100 µM | > 100 µM | > 100 µM | > 100 µM |  |  |  |  |  | 
COC(=O)c1cc2c(n1S(=O)(=O)c1ccc(C)cc1)C(=O)C(=O)c1[nH]cc(C(=O)OCc3ccccc3)c1-2 | 0.334 µM | 1.05 µM | 0.276 µM | 0.665 µM | 0.559 µM | 0.168 µM | 5.26 µM | 1.02 µM | 0.515 µM | 0.809 µM | 0.112 µM |  |  |  |  |  | 
Cc1ccccc1-n1c(=O)c2ncn(CCCl)c2n(-c2ccccc2C)c1=S | > 100 µM | > 100 µM | > 100 µM | > 100 µM | > 100 µM | > 100 µM | > 100 µM | > 100 µM | > 100 µM | > 100 µM | > 100 µM |  |  |  |  |  | 
